Assay results: patent publication US20180321224A1, “COMPOSITIONS AND METHODS FOR INCREASING HEPATOCYTE FUNCTIONAL LIFETIME IN VITRO” (Colorado State University Research Foundation, priority 2015, published 2018)
Where two headings read alike, the source gives them in different places.

Experiments:
[1] = test system: primary human hepatocytes in micropatterned co-cultures (MPCCs); assay: Hepatotoxicity screening in MPCCs pre-cultured in physiologic medium (urea synthesis); conditions: for Calculated TC50 (interpolated concentration where urea synthesis drops below 50% of the vehicle control): MPCCs in physiologic medium for 10 days, treated 2 times over 5 days in serum free medium, vehicle DMSO
Protocol: Therefore, a drug screen with cultures after they were subjected to physiologic medium for 10 days was carried out (FIG. 5). […] Drug treatments were carried out in serum free medium to prevent potential drug-protein interactions.
Urea synthesis and glucose production was quantified using previously described methods. Since human serum contains significant amounts of […], an alternative protocol to quantify MPCC albumin production was used. Specifically, after 2 and 3 weeks of culture, cultures were washed 3 times with 1×PBS, and then incubated for 24 hours in serum free medium. Albumin was then measured in this medium using a sandwich ELISA method. To account for potential residual albumin in cell culture medium, any differences in albumin production between cultures incubated in 5%, 7.5% and 10% serum were examined. […] Enzyme activity was assessed using the methods previously described.
Drug toxicity and enzyme induction were assessed as previously described.

[2] = average maximal drug concentration observed in patients after administering the drug; cited from earlier work
[3] = after 2 treatments over 5 days at 25*Cmax and 100*Cmax, serum free medium, MPCCs pre-cultured in physiologic medium 10 days

| Compound | Toxicity categorization by urea synthesis in MPCC supernatants (toxic if below 50% of vehicle control) [1] | Calculated TC50 (interpolated concentration where urea synthesis drops below 50% of the vehicle control) [1] [µM] | Toxicity categorization by urea synthesis in MPCC supernatants (toxic if below 50% of vehicle control) [1, 3] | Cmax [2] [µM] |
| --- | --- | --- | --- | --- |
| Clc1ccc(COC(Cn2ccnc2)c2ccc(Cl)cc2Cl)c(Cl)c1 (stereo not shown) [miconazole] | no significant loss in urea synthesis |  |  |  |
| troglitazone |  | 1555 | toxic | 6.39 |
| piroxicam |  | 2901 | toxic | 5.13 |
| C[C@]12C=CC(=O)C=C1CC[C@@H]1[C@@H]2C(=O)C[C@@]2(C)[C@H]1CC[C@]2(O)C(=O)CO [prednisone] | no significant loss in urea synthesis |  |  |  |
| CC(=O)Oc1ccccc1C(=O)O [aspirin] | no significant loss in urea synthesis |  |  |  |
| C[C@@H]1C[C@H]2[C@@H]3CCC4=CC(=O)C=C[C@]4(C)[C@@]3(F)[C@@H](O)C[C@]2(C)[C@@]1(O)C(=O)CO [dexamethasone] | no significant loss in urea synthesis |  |  |  |
